The values that follow come from patent US9739767B2, “Method of screening for plant defense activators, plant defense activators, and method of enhancing immune response” (TOKYO UNIVERSITY OF SCIENCE FOUNDATION, priority 2010, dated 2017).

Some results are limits rather than exact numbers.

Test [1] has as its system salicylic acid-dependent defense pathway and jasmonic acid-dependent defense pathway. Kind of test: Defense gene expression (PR1, PDF1.2) in Arabidopsis seedlings, real-time RT-PCR. Particulars: Arabidopsis seedlings on MS plates containing compound for 3 or 6 days (FIG. 2). In kind it is in vivo, Arabidopsis thaliana. The method, then: (§1) Total RNA was isolated from plant cells using Trizol (Invitrogen, Carlsbad, Calif., USA) reagent in accordance with the manufacturer's protocol and quantified using a spectrophotometer. First-strand cDNA was synthesized from 3 μg total RNA with an oligo-dT primer and reverse transcriptase.
(§2) Real-time PCR was performed using an ABI PRISM 7300 sequence detection system (Applied Biosystems, Foster City, Calif., USA) with SYBR Green real-time PCR Master Mix (TOYOBO, Osaka, Japan) and the gene-specific primers. PCR amplification was performed with an initial denaturation at 95° C. for 10 min followed by 40 cycles of incubations at 95° C. for 15 s, 60° C. for 15 s, and 72° C. for 45 s. Relative mRNA abundances were calculated using the comparative Ct method. Actin or tubulin was used as an internal control. The following primers were used in the experiment.
Arabidopsis seedlings were grown on MS plate for 12 days and then the seedlings were transferred to MS plates containing chemical compounds. After grown for 3 or 6 days, the samples for RNA extraction were collected.

Test [2] concerns innate immunity in tobacco plant. In words: Innate immunity gene expression (PR1a, PR1b) in tobacco seedlings after cryptogein. In kind it is in vivo, Nicotiana tabacum. To be noted: 6 days on compound, cryptogein 2000 nM, 0, 1 and 24 h (FIG. 4). As to the method: as §1, §2
Tobacco seedlings were grown on MS plate for 7 days and then the seedlings were transferred to MS plates containing chemical compounds. After grown for 6 days, cryptogein (2000 nM) was added to the medium and the samples for RNA extraction were collected at the indicated time (0, 1 and 24 h).

Another test has as its system innate immunity in rice. Kind of test: Innate immunity gene expression (PBZ1, WRKY45) in rice seedlings after N-acetylchitoheptaose. In kind it is in vivo, Oryza sativa. To be noted: 2 days on compound, [GlcNAc]7 10 μM, observed 24 hours after elicitor (FIG. 5).
The subject of test [3] is Pseudomonas syringae pv tomato (Pst) DC3000. In words: Pathogen infection assay in Arabidopsis thaliana (Col-0). Particulars: Arabidopsis thaliana (Col-0) irrigated with compound for 5 days, dip inoculation with Pst DC3000, 3 days (FIG. 3). It is filed as in vivo. As to the method:
Arabidopsis thaliana (Col-0) were grown in sterilized potting soil (Kureha) in plastic pots (5 cm×5 cm×5 cm) inside a growth chamber under a 16 h-8 h light-dark regimen at 22° C. with 60% humidity. After grown for 3 weeks, plants were irrigated with chemical compounds for 5 days.
Pseudomonas syringae pv tomato (Pst) DC3000 was cultured in nutrient broth medium (Eiken Chemical) for 24 h at 28° C., and a bacterial suspension was prepared in 10 mM MgCl2 (2×10^5 colony-forming units per mL). Challenge inoculation was performed by dipping the plants in bacterial solution. After incubation for 3 days at 22° C., the leaves were harvested from the inoculated plants. Three to four leaves from different plants were combined, weighed, and then homogenized in 10 mM MgCl2; the homogenate was then plated on nutrient broth agar containing rifampicin (50 mg/L) at appropriate dilutions. After incubation for 2 days at 28° C., the number of rifampicin-resistant bacterial colonies was counted. More than six homogenized samples were prepared for each experiment.

The next test deals with OsWRKY45. Particulars: rice; cited from earlier work.
Another test deals with tobacco leaves. Kind of test: Salicylic acid accumulation in tobacco leaves after cryptogein. In kind it is in vivo. Particulars: tobacco leaves treated with 2,000 nM cryptogein; range from several thousand, varying with conditions. As to the method: In the case of tobacco BY-2 cells compared to normal tobacco plant, the salicylic acid accumulation level of untreated tobacco BY-2 cells is from 10 to 20 ng/g (fresh weight), while the salicylic acid accumulation level of untreated tobacco leaves is several hundred ng/g (fresh weight). When treated with 2,000 nM cryptogein, the salicylic acid accumulation level of treated tobacco BY-2 cells increases to a level of approximately from 100 to 150 ng/g (fresh weight), while the salicylic acid accumulation level of treated tobacco leaves increases to, though varying depending on conditions, a level in the range of from several thousand ng/g (fresh weight) to 10,000 ng/g (fresh weight).

Turning to `O=c1cc(N2CCNCC2)oc2c(-c3ccccc3)cccc12` [Compound 2, LY303511], the “activation of salicylic acid-dependent and jasmonic acid-dependent defense pathways” value in test [1] is “activated both the salicylic acid-dependent defense pathway and the jasmonic acid-dependent defense pathway”. The “enhancement of immune response after treatment with cryptogein” value in test [2] was “enhanced an immune response”.

In the case of `Cn1cnc(=N)c2nc[nH]c21` [Compound 3, 3MA], the “activation of salicylic acid-dependent and jasmonic acid-dependent defense pathways” value in test [1] was “activated both the salicylic acid-dependent defense pathway and the jasmonic acid-dependent defense pathway”. The “enhancement of immune response after treatment with cryptogein” value in test [2] was “enhanced an immune response”. Moreover, the “enhancement of immune response after elicitor application” value in the test with innate immunity in rice is on record as “enhanced an immune response”. The “resistance to a plant disease” value in test [3] is on record as “effective in enhancing resistance to a plant disease”.

On to `c1ccc2snnc2c1` [BTH, benzothiadiazole], for which the “time to upregulation of OsWRKY45 after treatment” value with OsWRKY45 was not above 3 h.

B1: cryptogein (protein, UniProt P15570 21-118, looked up)
Beta-elicitin cryptogein: TACTATQQTAAYKTLVSILSDASFNQCSTDSGYSMLTAKALPTTAQYKLMCASTACNTMIKKIVTLNPPNCDLTVPTSGLVLNVYSYANGFSNKCSSL
notes: an elicitin derived from oomycete, Phytophthora cryptogea; trigger material (elicitor)
As to B1, the “salicylic acid accumulation level” value with tobacco leaves is given as ≤ 10,000 ng/g (fresh weight).
